Assay results reported in patent US20120107240A1, “Probes and methods of melanoma imaging” (The Board of Trustees of the Leland Stanford Junior …, priority 2010, published 2012).

Tests used:
B16F10 tumor = experiment: microPET quantification (ROI analysis) of tumors and other organs in B16F10 tumor-bearing mice; type: in vivo, C57BL/6 mice; settings: for tumor uptake: tail vein, B16F10 tumor
Method: B16F10 was cultured in Dulbecco's modified Eagle high-glucose medium (Gibco Life Sciences) supplemented with 10% fetal bovine serum with penicillin and streptomycin. The cells were regularly maintained in a 37° C., 5% CO2 humidified incubator. The subcutaneous B16F10 tumor models were prepared with 5- to 6-wk-old male C57BL/6 mice (Charles River). Static microPET scans were performed on the B16F10 tumor-bearing mice and representative decay-corrected coronal images at 0.5, 1, and 2 h after tail vein injection of ^18F-P3BZA (3-^18F-fluoropicolinamide) probe and ^18F-P2BZA (2-^18F-fluoronicotinamide) probe are shown in FIG. 2 (n=5 for each group), from which the B16F10 tumors were clearly visualized with good tumor-to-background contrast for both tracers (the white arrows indicate the tumors).
The microPET quantification analysis of tumors and other organs was obtained from the ROI analysis and the results at 0.5, 1, and 2 h p.i. are shown in FIG. 3. The tumor uptake of 18F-F3BZA probe was 11.8±2.2, 13.2±2.4, and 14.5±3.2% ID/g at 0.5, 1, and 2 h p.i., respectively. For ^18F-P2BZA probe, the tumor uptake was 5.5±1.6, 4.6±2.4, 5.5±2.6% ID/g at 0.5, 1, and 2 h p.i., respectively. […] The unspecific uptake by muscle is very low, 0.8±0.4, 1.0±0.5, 0.6±0.3% ID/g at 0.5, 1, and 2 h p.i.), which is the explanation of the high contrast images shown in FIG. 2.
(§1) The ^18F-fluoropicolinamides were prepared by radiofluorination reactions using no-carrier-added ^18F-fluoride and evaluated in vivo by biodistribution studies and micro-positron emission tomography (microPET) imaging in C57BL/6 mice bearing B16F10 murine melanoma tumors.

[1] = test system: B16F10 murine melanoma tumors; experiment: Noninvasive microPET and direct tissue sampling (biodistribution) in subcutaneous B16F10 melanoma xenografts; type: in vivo, C57BL/6 mice
Method: as §1
The total synthesis time was less than 1 hour. The radiochemical purity of the ^18F-labeled probes was more than 98% and the specific activity was 100-150 GBq/μmol.

Row | tumor uptake (B16F10 tumor; 0.5 h post injection) [% ID/g] | tumor uptake (B16F10 tumor; 1 h post injection) [% ID/g] | tumor uptake (B16F10 tumor; 2 h post injection) [% ID/g] | Kidneys uptake (B16F10 tumor; 0.5 h p.i.) [% ID/g] | Liver uptake (B16F10 tumor; 0.5 h p.i.) [% ID/g] | unspecific uptake by muscle (B16F10 tumor; 0.5 h p.i.) [% ID/g] | Kidneys uptake (B16F10 tumor; 1 h p.i.) [% ID/g] | Liver uptake (B16F10 tumor; 1 h p.i.) [% ID/g] | unspecific uptake by muscle (B16F10 tumor; 1 h p.i.) [% ID/g] | Kidneys uptake (B16F10 tumor; 2 h p.i.) [% ID/g] | Liver uptake (B16F10 tumor; 2 h p.i.) [% ID/g] | unspecific uptake by muscle (B16F10 tumor; 2 h p.i.) [% ID/g] | tumor uptake (B16F10 tumor; 2 h post injection, listed as 18F-F3BZA) [% ID/g] | tumor to muscle ratio (B16F10 tumor; at 2 h) | clearance from the blood (B16F10 tumor; mouse, in vivo) | in vivo stability ([1]; evidenced by bone uptake) | bone uptake in biodistribution studies ([1]; mouse, in vivo) | bone uptake (B16F10 tumor; 1 h postinjection) [% ID/g] | bone uptake (B16F10 tumor; 2 h postinjection) [% ID/g] | defluorination in the murine model (B16F10 tumor; evidenced by bone uptake) | Substance
1 | 5.5±1.6 | 4.6±2.4 | 5.5±2.6 | – | – | – | – | – | – | – | – | – | – | – | – | – | – | – | – | – | 2-^18F-fluoronicotinamide [^18F-P2BZA, reference compound]
2 | 11.8±2.2 | 13.2±2.4 | 14.6±3.2 | 6.9±1.1 | 5.1±0.8 | 0.8±0.4 | 4.7±0.8 | 4.3±1.1 | 1.0±0.5 | 3.0±0.6 | 3.0±0.6 | 0.6±0.3 | 14.5±3.2 | 25.3 | cleared rapidly | good | low | – | – | – | 3-^18F-fluoropicolinamide [^18F-P3BZA]
3 | 10.7±1.3 | 10.5±1.8 | 8.7±2.3 | – | – | – | – | – | – | – | – | – | – | – | – | – | – | 11.3±2.9 | 10.3±3.6 | very high | 4-^18F-fluoropicolinamide [^18F-P4BZA]
